Structures are written as SMILES. Where “and” joins values, the source holds several entries; their conditions need not be identical. Equal entries are not always repeated. Calls of active or inactive are those of the source. For most assays here, no stated cut-off is given here; in the data, actives have a measured IC50 and inactives only a lower limit.

Assay [1] has as its target T1, Tyrosine-protein phosphatase non-receptor type 7 (Homo sapiens, UniProt P35236).
T1 sequence (P35236 whole entry): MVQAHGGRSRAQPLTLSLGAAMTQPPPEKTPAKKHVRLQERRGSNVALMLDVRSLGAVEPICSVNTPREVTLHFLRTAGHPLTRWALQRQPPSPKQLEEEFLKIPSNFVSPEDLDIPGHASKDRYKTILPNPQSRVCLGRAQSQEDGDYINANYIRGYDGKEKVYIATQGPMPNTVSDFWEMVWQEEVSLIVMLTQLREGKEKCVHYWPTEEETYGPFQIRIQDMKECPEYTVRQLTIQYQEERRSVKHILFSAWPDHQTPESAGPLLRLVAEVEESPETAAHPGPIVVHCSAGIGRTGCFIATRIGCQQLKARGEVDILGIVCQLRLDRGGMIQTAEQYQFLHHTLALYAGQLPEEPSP
In kind it is functional.

For assay [2], the target named is T2, Tyrosine-protein phosphatase non-receptor type 22 (Homo sapiens, UniProt Q9Y2R2).
T2 sequence (Q9Y2R2 whole entry): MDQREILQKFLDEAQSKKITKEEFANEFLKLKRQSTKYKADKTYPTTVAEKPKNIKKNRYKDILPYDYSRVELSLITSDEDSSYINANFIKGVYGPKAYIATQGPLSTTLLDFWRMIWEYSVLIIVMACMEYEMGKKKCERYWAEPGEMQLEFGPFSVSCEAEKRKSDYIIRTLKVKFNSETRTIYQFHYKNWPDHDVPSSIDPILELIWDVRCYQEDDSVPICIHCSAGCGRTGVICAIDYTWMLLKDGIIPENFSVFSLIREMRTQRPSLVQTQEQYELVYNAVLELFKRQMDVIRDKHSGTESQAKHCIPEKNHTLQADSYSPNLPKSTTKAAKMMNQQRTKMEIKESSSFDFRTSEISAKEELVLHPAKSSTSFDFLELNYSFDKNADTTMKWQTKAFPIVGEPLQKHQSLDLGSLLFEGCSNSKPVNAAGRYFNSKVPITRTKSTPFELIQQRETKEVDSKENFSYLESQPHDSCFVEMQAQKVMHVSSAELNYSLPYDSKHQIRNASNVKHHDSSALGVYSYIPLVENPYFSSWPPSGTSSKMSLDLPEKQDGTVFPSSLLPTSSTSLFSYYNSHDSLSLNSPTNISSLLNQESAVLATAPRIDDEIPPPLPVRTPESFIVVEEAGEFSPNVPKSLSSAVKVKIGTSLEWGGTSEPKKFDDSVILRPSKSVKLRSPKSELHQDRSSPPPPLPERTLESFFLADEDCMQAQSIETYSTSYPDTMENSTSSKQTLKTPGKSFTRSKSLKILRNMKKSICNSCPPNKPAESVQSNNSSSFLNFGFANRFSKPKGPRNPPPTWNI
In kind it is functional.

The target of assay [3] is T2, Tyrosine-protein phosphatase non-receptor type 22. In kind it is functional. This is another data set of the same source.
Assay [4] addresses Dual specificity protein phosphatase 3 (Homo sapiens, UniProt P51452). Description: SAR VHR1 Fluorescent Assay for In Vitro dose response studies Set 2. [Related pubchem assays (depositor defined):AID1654, AID1661, AID1878]. In kind it is functional.
Assay [5] has as its target T3, Dual specificity protein phosphatase 6 (Rattus norvegicus, UniProt Q64346).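 Further: confirmatory in vitro dose-response testing of MKP-3 inhibition; recombinant His-tagged MKP-3 made in E. coli BL21 with OMFP substrate.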
T3 sequence (Q64346 whole entry): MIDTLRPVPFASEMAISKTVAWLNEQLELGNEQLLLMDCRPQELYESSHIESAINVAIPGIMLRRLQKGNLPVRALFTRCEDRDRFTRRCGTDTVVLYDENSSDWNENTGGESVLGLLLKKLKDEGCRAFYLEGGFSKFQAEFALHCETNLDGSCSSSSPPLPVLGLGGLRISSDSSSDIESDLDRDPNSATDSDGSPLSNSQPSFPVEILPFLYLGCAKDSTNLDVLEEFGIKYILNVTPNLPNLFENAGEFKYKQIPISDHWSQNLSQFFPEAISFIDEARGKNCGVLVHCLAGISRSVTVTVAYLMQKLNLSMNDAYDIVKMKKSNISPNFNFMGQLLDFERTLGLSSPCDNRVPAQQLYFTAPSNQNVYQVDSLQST
In kind it is functional.

Assay [6] deals with Small ubiquitin-related modifier 2 (Homo sapiens, UniProt P61956). In words: SUMO2 binding disruption by SUMO1 hits – biochemical, FRET, human SUMO2, uHTS hits, selectivity assay for SUMO1 interaction inhibitor project, dose response (AID 624384). In kind it is functional. The conditions noted are these: read-out: IC50_Mean.
Small ubiquitin-related modifier 2, sequence (P61956 whole entry): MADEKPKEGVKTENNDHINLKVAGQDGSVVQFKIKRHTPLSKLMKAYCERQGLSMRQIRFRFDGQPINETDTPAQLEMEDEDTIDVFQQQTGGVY
The target in assay [7] is Protein disulfide-isomerase A6 (Homo sapiens, UniProt Q15084). Description: reduced insulin turbidity driven by ERp5 (PDIA6) – biochemical, absorbance 650 nm, cherry-picked samples, dose response (AID 720566).
Protein disulfide-isomerase A6, sequence (Q15084 whole entry): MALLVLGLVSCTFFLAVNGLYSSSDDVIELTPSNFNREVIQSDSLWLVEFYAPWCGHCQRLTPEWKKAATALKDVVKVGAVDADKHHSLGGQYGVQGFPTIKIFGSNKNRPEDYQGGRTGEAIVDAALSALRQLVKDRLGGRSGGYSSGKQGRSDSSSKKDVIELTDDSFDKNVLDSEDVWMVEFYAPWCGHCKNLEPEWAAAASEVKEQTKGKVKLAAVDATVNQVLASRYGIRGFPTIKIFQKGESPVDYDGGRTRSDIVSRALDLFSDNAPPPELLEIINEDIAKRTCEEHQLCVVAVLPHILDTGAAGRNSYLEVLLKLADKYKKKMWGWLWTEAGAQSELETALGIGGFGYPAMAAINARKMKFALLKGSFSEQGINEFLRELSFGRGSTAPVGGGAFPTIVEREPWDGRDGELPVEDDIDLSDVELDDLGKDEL
Assay [8] deals with T4, Sentrin-specific protease 7 (Homo sapiens, UniProt Q9BQF6).
T4 sequence (Q9BQF6 whole entry): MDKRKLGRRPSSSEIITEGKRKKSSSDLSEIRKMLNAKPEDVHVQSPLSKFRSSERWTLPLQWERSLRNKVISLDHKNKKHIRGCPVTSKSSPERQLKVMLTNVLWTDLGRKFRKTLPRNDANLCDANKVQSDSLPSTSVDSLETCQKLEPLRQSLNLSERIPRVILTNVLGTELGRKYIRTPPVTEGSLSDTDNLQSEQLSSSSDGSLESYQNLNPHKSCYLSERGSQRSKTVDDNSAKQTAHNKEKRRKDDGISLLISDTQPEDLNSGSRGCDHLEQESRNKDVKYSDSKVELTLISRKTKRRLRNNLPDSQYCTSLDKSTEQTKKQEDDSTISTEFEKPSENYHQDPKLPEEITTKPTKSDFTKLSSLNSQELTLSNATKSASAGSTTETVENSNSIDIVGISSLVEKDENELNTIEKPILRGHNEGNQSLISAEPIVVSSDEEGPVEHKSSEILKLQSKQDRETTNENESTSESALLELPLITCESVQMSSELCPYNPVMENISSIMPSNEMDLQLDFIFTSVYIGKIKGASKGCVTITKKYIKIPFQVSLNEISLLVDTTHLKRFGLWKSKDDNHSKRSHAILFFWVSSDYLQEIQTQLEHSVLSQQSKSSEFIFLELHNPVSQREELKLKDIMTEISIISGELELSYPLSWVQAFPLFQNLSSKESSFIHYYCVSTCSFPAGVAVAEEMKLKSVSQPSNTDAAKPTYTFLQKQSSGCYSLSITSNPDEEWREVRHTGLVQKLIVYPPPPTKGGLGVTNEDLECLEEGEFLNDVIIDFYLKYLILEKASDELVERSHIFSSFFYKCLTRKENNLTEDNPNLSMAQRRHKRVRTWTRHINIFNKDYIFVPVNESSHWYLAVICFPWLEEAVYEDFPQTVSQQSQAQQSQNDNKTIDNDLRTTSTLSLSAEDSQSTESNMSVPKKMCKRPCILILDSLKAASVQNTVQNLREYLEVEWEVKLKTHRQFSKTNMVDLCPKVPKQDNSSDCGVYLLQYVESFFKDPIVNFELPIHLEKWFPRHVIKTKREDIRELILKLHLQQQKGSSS
In kind it is functional.

Dual specificity protein phosphatase 3, sequence (P51452 whole entry): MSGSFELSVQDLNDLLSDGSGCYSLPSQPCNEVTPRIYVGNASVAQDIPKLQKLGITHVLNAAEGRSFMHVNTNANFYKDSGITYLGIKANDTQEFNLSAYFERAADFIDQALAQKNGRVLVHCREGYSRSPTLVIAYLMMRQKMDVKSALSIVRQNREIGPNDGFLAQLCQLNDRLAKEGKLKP

As to `N#Cc1c(N2CCCC2)nc(N)c2c(N)nc(N3CCCC3)cc12`, the IC50 in assay [1] was 74.3 µM (active); in assay [2], > 79.4 µM (inactive); in assay [3], > 79.4 µM (inactive).
Consider `NS(=O)(=O)c1cc(C(=O)NC2CCSc3ccccc32)ccc1Cl` (stereo not drawn), for which the IC50 in assay [4] was > 100 µM (inactive) and 82.8 nM (active); in assay [5], 2.96 µM (active) and > 100 µM (inactive); in assay [6], 1.75 µM (active).
With `COC(=O)c1cc(C)nc2c1C(=O)C(=O)C=C2N1CCOCC1`, the AC50 – broadly, the concentration giving half of the maximal activity seen – in assay [7] is 45.1 µM (active).
In the case of `CCOC(=O)C1=C(C)OC2(O)c3ccccc3C(=O)C12O` (stereo not drawn), the IC50 in assay [8] was 3.27 µM (active).

Values taken from ChEMBL document CHEMBL1201862, “PubChem BioAssay data set” (2004).
